{"source": "patent US5219884A", "about": "“Immunosuppressant” (Taito Co., Ltd., priority 1990, dated 1993)", "key": {"[1]": {"assay": "cytotoxicity to tumor cell line MOLT4", "assay_type": "cell-based, human", "details": "human, molt4 cells, read-out: Suppression", "protocol": "(§1) Cytotoxicity to human tumor cell lines was examined as follows:\n(§2) Cells of human cell lines, K562, MOLT4, U937, HL60, KATOIII, KB, PC-6, PC-14 and CCRF-CEM were separately suspended to the concentration of 2×10^5 cells/ml in the RPMI1640 culture medium supplemented with 20% FCS. Fifty μl of this suspension was added to each well of 96-well microculture plates to which 50 μl of the test solution had been added. After culturing at 37° C. in an atmosphere of 5% carbon dioxide for 72 hours, the absorbancy at 550 nm was measured in the same way as the colorimetry using MTT in Experimental Example 1, and the percent suppression was calculated in the same manner as in Experimental Example 14, which was used as the index of cytotoxicity."}, "MOLT4": {"system": "MOLT4", "assay": "cytotoxicity to tumor cell line MOLT4", "assay_type": "cell-based, human", "protocol": "as §1, §2"}, "in vitro": {"assay": "in vitro", "assay_type": "cell-based, human", "details": "human, read-out: Suppression", "protocol": "as §1, §2"}, "PC-14": {"system": "PC-14", "assay": "in vitro", "assay_type": "cell-based, human", "protocol": "as §1, §2"}, "U937": {"system": "U937", "assay": "in vitro", "assay_type": "cell-based, human", "protocol": "as §1, §2"}, "KB": {"system": "KB", "assay": "in vitro", "assay_type": "cell-based, human", "protocol": "as §1, §2"}, "CCRF-CEM": {"system": "CCRF-CEM", "assay": "in vitro", "assay_type": "cell-based, human", "protocol": "as §1, §2"}, "HL60": {"system": "HL60", "assay": "in vitro", "assay_type": "cell-based, human", "protocol": "as §1, §2"}, "K562": {"system": "K562", "assay": "in vitro", "assay_type": "cell-based, human", "protocol": "as §1, §2"}, "[2]": {"system": "mouse allogenic mixed lymphocyte reaction (BALB/c responder, C57BL/6 stimulator spleen cells)", "assay": "mouse allogenic mixed lymphocyte reaction (MLR), blastogenesis by 3H-thymidine uptake", "assay_type": "cell-based", "protocol": "The immunosuppressive activity of the compounds (I) and their lactones was assayed by using mouse allogenic mixed lymphocyte reaction (hereinafter sometimes abbreviated as MLR). Mouse allogenic MLR was carried out by mixed culture of the BALB/c mouse (H-2^d) spleen cells as the responder cells and the mitomycin C-treated C57BL/6 (H-2^b) spleen cells as the stimulator cells in equal amounts.\nThe responder cells were prepared as follows: The spleen was resected from 5- to 6-week-old male BALB/c mice, and single cell suspension of spleen cells was prepared by using the RPMI1640 culture medium (containing 60 μg/ml of kanamycin sulfate, 2 mM of L-glutamine, 10 mM of N-2-hydroxyethylpiperazine-N'-2-ethanesulfonate (HEPES) and 0.1% sodium hydrogencarbonate) to which heat-inactivated fetal calf serum (hereinaftersometimes abbreviated as FCS) had been added to 5%. After hemolytic treatment, the cell suspension was adjusted to a concentration of 10^7 cells/ml by using the RPMI1640 culture medium supplemented with 10^-4 M 2-mercaptoethanol and 20% FCS, and was used as the responder cell suspension.\nThe stimulator cells were prepared as follows:\nThe spleen was resected from 5- to 6-week-old male C57BL/6 mice, and single cell suspension of spleen cells was prepared by using the RPMI1640 culture medium. After hemolytic treatment, the cells were treated with 40 μg/ml of mitomycin C at 37° C. for 60 minutes. After washing three times, the concentration of the cell suspension was adjusted to 10^7 cells/ ml by using the RPMI1640 culture medium supplemented with 10^-4 M 2-mercaptoethanol and 20% FCS, and was used as the stimulator cell suspension.\nFifty μl of the responder cell suspension, 50μl of the stimulator cell suspension prepared by the above method, and 100 μl of the test substance were placed in 96-well microculture plates, and were cultured at 37° C. in an atmosphere of 5% carbon dioxide for 4 days.\nThe blastogenesis of lymphocytes was assayed by a method of ^3 H-thymidine uptake as an index. That is, after termination of the culture, 0.5 μCi/well of ^3 H-thymidine was added and cultured for 4 hours. Cells were harvested by a cell-harvester, and the radioactivity incorporated into the cells was determined by a liquid scintillation counter to obtain the index of blastogenesis of lymphocytes in the mouse allogenic MLR. The suppression of the mouse allogenic MLR was evaluated by calculating the percent suppression by the following formula. [formula]\nThe test substance was dissolved in methanol or suspended in a mixture of methanol and acetic acid, and then diluted with the RPMI1640 culture medium."}}, "data": [{"smiles": "CCCCCCC(=O)CCCCCC/C=C/CC1OC(=O)C(N)(CO)C1O", "note": "(stereo not drawn) [Example 4]", "values": [{"measurement": "cytotoxicity at 72 h", "setting": "[1]; 0.1 μg/ml", "value": 14, "unit": "%"}, {"measurement": "cytotoxicity at 72 h", "setting": "[1]; 1.0 μg/ml", "value": 14.2, "unit": "%"}, {"measurement": "cytotoxicity at 72 h", "setting": "[1]; 10.0 μg/ml", "value": 22.8, "unit": "%"}, {"measurement": "cytotoxicity at 72 h", "setting": "[1]; 100.0 μg/ml", "value": 97.1, "unit": "%"}, {"measurement": "Absorbancy", "setting": "MOLT4; 0.1 μg/ml", "value": 0.351}, {"measurement": "Absorbancy", "setting": "MOLT4; 1.0 μg/ml", "value": 0.350}, {"measurement": "Absorbancy", "setting": "MOLT4; 10.0 μg/ml", "value": 0.315}, {"measurement": "Absorbancy", "setting": "MOLT4; 100.0 μg/ml", "value": 0.012}, {"measurement": "cytotoxicity at 72 h", "setting": "in vitro; ccrf-cem cells, 0.1 μg/ml", "value": 11.3, "unit": "%"}, {"measurement": "cytotoxicity at 72 h", "setting": "in vitro; ccrf-cem cells, 1.0 μg/ml", "value": 12.6, "unit": "%"}, {"measurement": "cytotoxicity at 72 h", "setting": "in vitro; ccrf-cem cells, 10.0 μg/ml", "value": 37.4, "unit": "%"}, {"measurement": "cytotoxicity at 72 h", "setting": "in vitro; ccrf-cem cells, 100.0 μg/ml", "value": 99.4, "unit": "%"}, {"measurement": "cytotoxicity at 72 h", "setting": "in vitro; hl60 cells, 0.1 μg/ml", "value": 23.4, "unit": "%"}, {"measurement": "cytotoxicity at 72 h", "setting": "in vitro; hl60 cells, 1.0 μg/ml", "value": 13.3, "unit": "%"}, {"measurement": "cytotoxicity at 72 h", "setting": "in vitro; hl60 cells, 10.0 μg/ml", "value": 21.1, "unit": "%"}, {"measurement": "cytotoxicity at 72 h", "setting": "in vitro; hl60 cells, 100.0 μg/ml", "value": 97.7, "unit": "%"}, {"measurement": "cytotoxicity at 72 h", "setting": "in vitro; k562 cells, 0.1 μg/ml", "value": 14.7, "unit": "%"}, {"measurement": "cytotoxicity at 72 h", "setting": "in vitro; k562 cells, 1.0 μg/ml", "value": 8.3, "unit": "%"}, {"measurement": "cytotoxicity at 72 h", "setting": "in vitro; k562 cells, 10.0 μg/ml", "value": 14.5, "unit": "%"}, {"measurement": "cytotoxicity at 72 h", "setting": "in vitro; k562 cells, 100.0 μg/ml", "value": 98.9, "unit": "%"}, {"measurement": "cytotoxicity at 72 h", "setting": "in vitro; katoiii cells, 0.1 μg/ml", "value": 5.3, "unit": "%"}, {"measurement": "cytotoxicity at 72 h", "setting": "in vitro; katoiii cells, 1.0 μg/ml", "value": 6.7, "unit": "%"}, {"measurement": "cytotoxicity at 72 h", "setting": "in vitro; katoiii cells, 10.0 μg/ml", "value": 25.8, "unit": "%"}, {"measurement": "cytotoxicity at 72 h", "setting": "in vitro; katoiii cells, 100.0 μg/ml", "value": 97.9, "unit": "%"}, {"measurement": "cytotoxicity at 72 h", "setting": "in vitro; kb cells, 0.1 μg/ml", "value": 19, "unit": "%"}, {"measurement": "cytotoxicity at 72 h", "setting": "in vitro; kb cells, 1.0 μg/ml", "value": 2.5, "unit": "%"}, {"measurement": "cytotoxicity at 72 h", "setting": "in vitro; kb cells, 10.0 μg/ml", "value": 33.5, "unit": "%"}, {"measurement": "cytotoxicity at 72 h", "setting": "in vitro; kb cells, 100.0 μg/ml", "value": 99, "unit": "%"}, {"measurement": "cytotoxicity at 72 h", "setting": "in vitro; pc-14 cells, 0.1 μg/ml", "value": 0, "unit": "%"}, {"measurement": "cytotoxicity at 72 h", "setting": "in vitro; pc-14 cells, 1.0 μg/ml", "value": 0, "unit": "%"}, {"measurement": "cytotoxicity at 72 h", "setting": "in vitro; pc-14 cells, 10.0 μg/ml", "value": 0, "unit": "%"}, {"measurement": "cytotoxicity at 72 h", "setting": "in vitro; pc-14 cells, 100.0 μg/ml", "value": 95.3, "unit": "%"}, {"measurement": "cytotoxicity at 72 h", "setting": "in vitro; u937 cells, 0.1 μg/ml", "value": 16.1, "unit": "%"}, {"measurement": "cytotoxicity at 72 h", "setting": "in vitro; u937 cells, 1.0 μg/ml", "value": 0, "unit": "%"}, {"measurement": "cytotoxicity at 72 h", "setting": "in vitro; u937 cells, 10.0 μg/ml", "value": 2.9, "unit": "%"}, {"measurement": "cytotoxicity at 72 h", "setting": "in vitro; u937 cells, 100.0 μg/ml", "value": 99, "unit": "%"}, {"measurement": "Absorbancy", "setting": "PC-14; 0.1 μg/ml", "value": 0.656}, {"measurement": "Absorbancy", "setting": "PC-14; 1.0 μg/ml", "value": 0.679}, {"measurement": "Absorbancy", "setting": "PC-14; 10.0 μg/ml", "value": 0.657}, {"measurement": "Absorbancy", "setting": "PC-14; 100.0 μg/ml", "value": 0.030}, {"measurement": "Absorbancy", "setting": "U937; 0.1 μg/ml", "value": 0.313}, {"measurement": "Absorbancy", "setting": "U937; 1.0 μg/ml", "value": 0.384}, {"measurement": "Absorbancy", "setting": "U937; 10.0 μg/ml", "value": 0.362}, {"measurement": "Absorbancy", "setting": "U937; 100.0 μg/ml", "value": 0.004}, {"measurement": "Absorbancy", "setting": "KB; 0.1 μg/ml", "value": 0.884}, {"measurement": "Absorbancy", "setting": "KB; 1.0 μg/ml", "value": 1.065}, {"measurement": "Absorbancy", "setting": "KB; 10.0 μg/ml", "value": 0.726}, {"measurement": "Absorbancy", "setting": "KB; 100.0 μg/ml", "value": 0.012}, {"measurement": "Absorbancy", "setting": "CCRF-CEM; 0.1 μg/ml", "value": 0.564}, {"measurement": "Absorbancy", "setting": "CCRF-CEM; 1.0 μg/ml", "value": 0.556}, {"measurement": "Absorbancy", "setting": "CCRF-CEM; 10.0 μg/ml", "value": 0.389}, {"measurement": "Absorbancy", "setting": "CCRF-CEM; 100.0 μg/ml", "value": 0.004}, {"measurement": "Absorbancy", "setting": "HL60; 0.1 μg/ml", "value": 0.265}, {"measurement": "Absorbancy", "setting": "HL60; 1.0 μg/ml", "value": 0.300}, {"measurement": "Absorbancy", "setting": "HL60; 10.0 μg/ml", "value": 0.273}, {"measurement": "Absorbancy", "setting": "HL60; 100.0 μg/ml", "value": 0.008}, {"measurement": "Absorbancy", "setting": "K562; 0.1 μg/ml", "value": 0.524}, {"measurement": "Absorbancy", "setting": "K562; 1.0 μg/ml", "value": 0.563}, {"measurement": "Absorbancy", "setting": "K562; 10.0 μg/ml", "value": 0.525}, {"measurement": "Absorbancy", "setting": "K562; 100.0 μg/ml", "value": 0.007}, {"measurement": "3H-thymidine uptake", "setting": "[2]; 0.001 μg/ml", "value": 29598, "unit": "cpm"}, {"measurement": "3H-thymidine uptake", "setting": "[2]; 0.01 μg/ml", "value": 10394, "unit": "cpm"}, {"measurement": "3H-thymidine uptake", "setting": "[2]; 0.1 μg/ml", "value": 1414, "unit": "cpm"}, {"measurement": "inhibition at 0.001 µg/mL", "setting": "[2]; Mus musculus, Lymphocyte, 0.001 μg/ml, read-out: Suppression", "value": 0.4, "unit": "%"}, {"measurement": "inhibition at 0.01 µg/mL", "setting": "[2]; Mus musculus, Lymphocyte, 0.01 μg/ml, read-out: Suppression", "value": 70, "unit": "%"}, {"measurement": "inhibition at 0.1 µg/mL", "setting": "[2]; Mus musculus, Lymphocyte, 0.1 μg/ml, read-out: Suppression", "value": 100, "unit": "%"}]}]}
